Measured values taken from US20240099295A1, “CELL TREATMENT AGENT” (AYA Inc., priority 2021, published 2024).

Test system: rat corneal epithelial cells
Test: Cell detaching and suspending effect (Experimental Example 4)
Format: cell-based
Experimental: A culture solution in which FBS was added to a normal serum-free cell culture solution in a concentration of 10% (10% FBS cell culture solution) was prepared in a culture dish. To this, rat corneal epithelial cells were added at 10^6 cells/ml and cultured for 24 hours under normal cell culture conditions (37° C., CO2 concentration of 5%, humidity of 100%) to make the cultured cells fully adhere to the culture dish wall which is a scaffold.
The culture solution in the culture dish on which cultured cells obtained as described above had adhered was replaced with each of dextran sulfate aqueous solutions and a dextran aqueous solution, which are respectively obtained by dissolving dextran sulfate (Dextran sodium sulfate MW 36000-50000, available from FUJIFILM Wako Pure Chemical Corporation) and dextran (Dextran MW 35000-50000, available from FUJIFILM Wako Pure Chemical Corporation) in purified water and have concentrations shown in Table 13, and the resultant culture solutions were continuously cultured under normal cell culture conditions (37° C., CO2 concentration of 5%, humidity of 100%). For each adherent cell, detachment and suspension of adherent cells from the dish wall was observed over time. For determination of detachment and suspension, the culture dish was gently shaken manually to observe whether the cells were detached from the dish wall and suspended, and the case where 90% or more of the cells were detached and suspended was determined as detachment and suspension of adherent cells. The results are of N=4. In Table 13, “∘” means that the cells were detached and suspended, and “x” means that the cells were not detached and suspended.

dextran sulfate [DS]
Detachment and suspension of adherent cells by lapse time after replacement (hour) (DS 0.1 mg/mL aqueous solution (MW 36000-50000), later lapse times up to 48 h, span not shown): ∘ (“∘” means that the cells were detached and suspended)
Detachment and suspension of adherent cells by lapse time after replacement (hour) (DS 0.1 mg/mL aqueous solution (MW 36000-50000), starts at <12 h): x (“x” means that the cells were not detached and suspended)
Detachment and suspension of adherent cells by lapse time after replacement (hour) (DS 1 mg/mL aqueous solution (MW 36000-50000), later lapse times up to 48 h, span not shown): ∘ (“∘” means that the cells were detached and suspended)
Detachment and suspension of adherent cells by lapse time after replacement (hour) (DS 1 mg/mL aqueous solution (MW 36000-50000), starts at <12 h): x (“x” means that the cells were not detached and suspended)
Detachment and suspension of adherent cells by lapse time after replacement (hour) (DS 10 mg/mL aqueous solution (MW 36000-50000), later lapse times up to 48 h, span not shown): ∘ (“∘” means that the cells were detached and suspended)
Detachment and suspension of adherent cells by lapse time after replacement (hour) (DS 10 mg/mL aqueous solution (MW 36000-50000), starts at <12 h): x (“x” means that the cells were not detached and suspended)
